Earlier results, collected in patent publication US20110287097A1, “PHARMACEUTICAL COMPOSITIONS COMPRISING ROPINIROLE” (DR. REDDY'S LABORATORIES, INC., priority 2007, published 2011).

CCCN(CCC)CCc1cccc2c1CC(=O)N2 [Ropinirole, 4-[2-(dipropylamino)ethyl]-1,3-dihydro-2H-indol-2-one]
time to peak plasma concentration (after administration of an immediate release tablet): 1 to 2 h | absolute systemic bioavailability (in vivo): 55% | mean plasma elimination half-life (in vivo): approximately 6 hours
